Measurements: PMC4279419, “Angiostatic, tumor inflammatory and anti-tumor effects of CXCL4^47–70 and CXCL4L1^47–70 in an EGF-dependent breast cancer model” (Oncotarget, 2014)
pKd: −log10 of the molar value. Read-outs that look alike come from different tables or passages of the source. Where no end group is shown, it is not given here.

Key:
macrophage markers = experiment: qPCR tumor macrophage marker expression; format: in vivo, murine; conditions: 2.5 μg intratumoral 3×/week; 2^−ΔΔCT
Procedure: (§1) The RNeasy Mini Kit (QIAGEN, Venlo, the Netherlands) was used for tumor mRNA extraction. The extracted mRNA was then converted to cDNA making use of the High Capacity cDNA Reverse Transcription Kit (Applied Biosystems, Foster City, CA). Quantitative polymerase chain reactions (qPCR) based on the TaqMan principle were conducted to compare gene expression between samples. Primers and probes (Table 2; Integrated DNA Technologies, Haasrode, Belgium), were diluted to the prescribed working concentrations in RNase-free water and added to the reaction mix in a MicroAmp® fast optical 96-well reaction plate (Applied Biosystems), together with 50 ng sample cDNA per reaction. The actual thermocycler program consisted of 2 minutes on 50 °C, 10 minutes on 95 °C and 40 cycles of 15 seconds on 95 °C followed by 1 minute on 60 °C. Analysis of the obtained CT was based on the 2^−ΔΔC^T method, opting for 18S ribosomal 1 RNA as an internal control.

p21 in HMVEC = experiment: Intracellular p21 content in HMVEC (ELISA); format: cell-based, human; conditions: 15 h, mean ± s.e.m.
Procedure: Signaling assays were slightly adapted to the signaling molecules of interest in this study. HMVEC were stimulated with EGF (20 ng/ml) as a single stimulus or in combination with the peptides CXCL4^47–70 and CXCL4L1^47–70 (0.3 to 10 μg/ml) in order to evaluate their impact on the cell cycle-arresting p21. After 15 hours, the cells were washed three times with ice-cold PBS to stop the stimulation and lysis buffer [1 mM EDTA, 0.5% (v/v) Triton-X, 10 mM NaF, 150 mM NaCl, 1 mM DTT in PBS; pH 7.2–7.4] supplemented with a protease inhibitor cocktail (Sigma) was added. Cell residue was removed from the collected lysates by centrifugation (4°C, 10 min, 1666g). Lastly, the intracellular p21 content was determined by DuoSet® IC ELISA (cat n° DYC1047, R&D Systems) while, in parallel, total protein content was measured in a bicinchoninic acid (BCA) protein assay (Pierce, Rockford, IL).

[1] = SPR (BIAcore) binding to immobilized heparin; conditions: for Dissociation rate (Koff): BIAcore X100, HBS-EP+ pH 7.4; for Association rate (Kon): BIAcore X100, HBS-EP+ pH 7.4, 2 min injection, 30 μl/min
Procedure: Next, we exploited surface plasmon resonance (SPR) analysis to assess the capacity of CXCL4^47–70 and CXCL4L1^47–70 to bind heparin immobilized to a BIAcore sensorchip, a model that mimics the binding of proteins to heparan sulphate proteoglycans associated to the cell surface. When increasing concentrations of the two peptides were injected onto the heparin surface, sensorgram overlays (not shown) allowed the calculation of association (Kon) and dissociation (Koff) rates and of Kd (as Koff/Kon ratio, Table 1). Also, equilibrium binding data were used to generate the saturation curves shown in Figure 8A and used to calculate a Kd value independently from kinetic parameters (Table 1).
SPR measurements were performed on a BIAcore X100 instrument (GE-Healthcare, Milwaukee, WI). Research-grade SA sensorchip was used. For the study of the interaction of heparin with CXCL4^47–70 and CXCL4L1^47–70, heparin was immobilized to a BIAcore sensorchip. Briefly, 13600 Da unfractionated heparin was biotinylated at its reducing end and immobilized onto the SA streptavidin-coated sensorchip. These experimental conditions allowed the immobilization of 200 resonance units (RU) equal to 14.7 fmol/mm^2 of heparin. A sensorchip coated with streptavidin alone was used as a reference and for blank subtraction. The peptides were dissolved in 10 mM HEPES buffer pH 7.4 containing 150 mM NaCl, 3 mM EDTA, 0.05% surfactant P20 (HBS-EP+) and injected at different concentrations over the heparin or streptavidin surfaces for 2 min at a flow rate of 30 μl/min and then washed until dissociation was observed. After each run, the sensorchip was regenerated by injection of HBS-EP+ containing 2.0 M NaCl.

[2] = test system: F4/80^+ cells in MDA-MB-231 tumors; experiment: Flow cytometry of intratumoral F4/80^+ cells; format: in vivo, mice; conditions: 2.5 μg intratumoral 3×/week; n=9; control 6.85 ± 1.18% (n=10)
Procedure: For flow cytometry, single cell suspensions were prepared from tumor biopsies using a MACS dissociator (Myltenyi Biotec, Bergisch Gladbach, Germany) and a mixture of collagenase A and dispase. Remaining cell clumps were removed by passing the cell suspension through a nylon cell strainer (70 μm mesh). Remaining red blood cells were lysed in ACK lysis buffer (0.15 M NH4Cl, 0.1 mM Na2EDTA, 10 mM KHCO3; pH = 7.2). Subsequently monocytes were identified by flow cytometry using specific antibodies, namely rat anti-mouse F4/80-PE antibody (eBiosciences, San Diego, CA).

endothelial cell = conditions: cited from earlier work
Procedure: We investigated whether CXCL4^47–70 and CXCL4L1^47–70 counteracted other growth factors with similar efficiency. Consistent with previous work, both CXCL4^47–70 and CXCL4L1^47–70 (0.4 μg/ml) reduced FGF2-induced GM7373 prolifera ...

IL-12 = experiment: qPCR tumor IL-12 mRNA (M1 marker); format: in vivo, murine; conditions: 2.5 μg intratumoral 3×/week; 2^−ΔΔCT; not reaching statistical significance
Procedure: as §1

CD11c = experiment: qPCR tumor CD11c mRNA (dendritic cell marker); format: in vivo, murine; conditions: 2.5 μg intratumoral 3×/week; 2^−ΔΔCT; p=0.032, n=10
Procedure: as §1

muCCL5 = experiment: qPCR stromal CCL5 mRNA; format: in vivo, murine; conditions: 2.5 μg intratumoral 3×/week; 2^−ΔΔCT; p=0.020, n=7
Procedure: as §1

TGM2 = experiment: qPCR tumor TGM2 mRNA (M2 marker); format: in vivo, murine; conditions: 2.5 μg intratumoral 3×/week; 2^−ΔΔCT
Procedure: as §1

CD204 = experiment: qPCR tumor CD204 mRNA (M2 marker); format: in vivo, murine; conditions: 2.5 μg intratumoral 3×/week; 2^−ΔΔCT
Procedure: as §1

F4/80 = experiment: qPCR tumor F4/80 mRNA; format: in vivo, murine; conditions: 2.5 μg intratumoral 3×/week; 2^−ΔΔCT; p=0.008, n=10
Procedure: as §1

IFN-γ = experiment: qPCR tumor IFN-γ mRNA; format: in vivo, murine; conditions: 2.5 μg intratumoral 3×/week; 2^−ΔΔCT
Procedure: as §1

monocytic THP-1 = conditions: as a single stimulus; cited from earlier work
Excerpt: Perception of the role of the immune system in tumor development has changed over time. Tumor inflammation is indeed the seventh hallmark of malignant disease, but the sizeable myeloid population present has been mostly observed to take on a tumor-promoting role rather than exert its protective, phagocytic and cytotoxic function. This shift could be attributed to the phagocytes' versatility and their ability to adopt distinct phenotypes influenced by locally produced factors. Rather than depleting the tumoral myeloid cell population, it could be beneficial to tackle its pola ...

[3] = peptide 3 μg/ml + EGF 20 ng/ml, n=9, p=0.039 (CXCL4^47–70), n=5, p=0.033 (CXCL4L1^47–70) versus EGF
[4] = BIAcore X100, HBS-EP+ pH 7.4, Scatchard plot analysis of equilibrium binding data, read-out: Kd at equilibrium
[5] = BIAcore X100, HBS-EP+ pH 7.4, from Koff/Kon ratio, read-out: Kd (Koff/Kon)
[6] = BIAcore X100, kinetic and equilibrium values taken together, read-out: Kd (range over both methods)

Dissociation rate (Koff) [1] [s⁻¹] | Association rate (Kon) [1] [M⁻¹ s⁻¹] | pKd [1, 4] | pKd [1, 5] | pKd [1, 6] | Substance | macrophage marker expression versus vehicle (macrophage markers) | intracellular p21 relative to control (100%), with EGF (p21 in HMVEC; [3]) [%] | intratumoral F4/80^+ cells [2] [%] | block of FGF2-induced endothelial cell motility and proliferation (endothelial cell) | IL-12 mRNA versus control (IL-12) | intracellular p21 relative to control (100%), with EGF (p21 in HMVEC; peptide 1 μg/ml + EGF 20 ng/ml, n=6, p=0.039 versus EGF) [%] | intracellular p21 relative to control (100%), with EGF (p21 in HMVEC; peptide 10 μg/ml + EGF 20 ng/ml, n=5, p=0.005 versus EGF) [%] | CD11c mRNA versus vehicle (CD11c) | stromal CCL5 expression versus vehicle (muCCL5) | TGM2 mRNA versus control (TGM2) | CD204 mRNA versus control (CD204) | F4/80 mRNA level versus control (F4/80) | IFN-γ mRNA versus vehicle (IFN-γ) | THP-1 migration, single stimulus (monocytic THP-1)
0.053 | 52000 | 5.92 | 6.00 | 5.92 to 6.00 | CXCL4L1^47–70: synthetic human carboxy-terminal peptide restricted to the last 24 amino acids of CXCL4L1, Fmoc chemistry | No significant changes in macrophage marker expression | 115.06 ± 17.41 | 7.74 ± 1.35 | retained the ability to block FGF2-induced endothelial cell motility and proliferation |  |  |  |  |  |  |  |  |  | 
0.011 | 670000 | 7.14 | 7.80 | 7.14 to 7.80 | CXCL4^47–70: synthetic human carboxy-terminal peptide restricted to the last 24 amino acids of CXCL4, Fmoc chemistry (NGRKICLDLQAPLYKKIIKKLLES; not fully specified (N-terminus)) |  | 100.02 ± 8.67 |  | retained the ability to block FGF2-induced endothelial cell motility and proliferation | only modestly increased | 106.90 ± 15.12 | 125.51 ± 15.05 | more prominent | significantly upregulated | only a modest increase | only a modest increase | significantly higher | significantly elevated expression | not to stimulate monocytic THP-1 migration
